In patent US20230210999A1, “TARGETED PROTEASE DEGRADATION (TED) PLATFORM” (EUBULUS BIOTHERAPEUTICS INC., priority 2020, published 2023):
pIC50: −log10 of the molar value. Where two headings read alike, the source gives them in different places.

What was measured:
Format in all cases: cell-based, human
[1] = tested on: MV4;11 cells; assay: Cell proliferation experiment (Alamar blue, 72 h), MV4;11; conditions: Homo sapiens
Outline: (§1)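 Alamar blue fluorescence after 72 h of compound exposure; IC50 from 4-parameter fit (Min, Max, Slope). Cells passaged ≥2 times, log-phase, 96-well, duplicate wells, 5-fold serial dilutions.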

[2] = tested on: MDA-MB-231 cells; assay: Cell proliferation experiment, MDA-MB-231
Outline: as §1

[3] = tested on: PC-3; assay: Cell proliferation experiment, PC-3; conditions: Homo sapiens
Outline: as §1

[4] = tested on: Daudi cells; assay: Cell proliferation experiment, Daudi; conditions: read-out: Inhibitory activity IC50 on Daudi
Outline: as §1

[5] = tested on: NCIH82 cells; assay: Cell proliferation experiment, NCI-H82; conditions: Homo sapiens, NCI-H82, NCI-H82 cells; read-out: Inhibitory activity IC50 on NCI-H82
Outline: as §1

[6] = MV4-11, MV4;11 cells, read-out: Inhibitory activity IC50 on MV4;11
[7] = Homo sapiens, MDA-MB-231, MDA-MB-231 cells, read-out: Inhibitory activity IC50 on MDA-MB-231
[8] = PC-3, PC-3 cells, read-out: Inhibitory activity IC50 on PC-3
[9] = Homo sapiens, Daudi, Daudi cells

Row | SMILES | pIC50 [1, 6] | pIC50 [2, 7] | pIC50 [3, 8] | pIC50 [4, 9] | pIC50 ([2]; MDA-MB-231 cells, read-out: Inhibitory activity IC50 on MDA-MB-231) | pIC50 ([4]; Daudi cells) | pIC50 [5] | pIC50 ([1]; MV4-11, read-out: Inhibitory activity IC50 on MV4;11) | pIC50 ([2]; Homo sapiens, MDA-MB-231, read-out: Inhibitory activity IC50 on MDA-MB-231) | pIC50 ([3]; PC-3, read-out: Inhibitory activity IC50 on PC-3) | pIC50 ([4]; Homo sapiens, Daudi)
1 | CC[C@@H]1C(=O)N(C)c2cnc(Nc3ccc(C(=O)N[C@H]4CC[C@H](NCCOCCC#Cc5cccc6c5CN(C5CCC(=O)NC5=O)C6=O)CC4)cc3OC)nc2N1C1CCCC1 (stereo partly drawn) [UB-181113] | – | – | – | – | – | – | – | > 8.00 | 7.00 to 8.00 | 7.00 to 8.00 | 7.00 to 8.00
2 | CC[C@@H]1C(=O)N(C)c2cnc(Nc3ccc(C(=O)NC4CCN(CCOCCN(C)CC(=O)Nc5cccc6c5CN(C5CCC(=O)NC5=O)C6=O)CC4)nc3)nc2N1C1CCCC1 (stereo partly drawn) [UB-181171] | 7.00 to 8.00 | < 6.00 | < 6.00 | < 6.00 | – | – | – | – | – | – | –
3 | CC[C@@H]1C(=O)N(C)c2cnc(Nc3ccc(C(=O)NC4CCN(CCOCCN(C)CC(=O)Nc5cccc6c5CN(C5CCC(=O)NC5=O)C6=O)CC4)cc3)nc2N1C1CCCC1 (stereo partly drawn) [UB-181143] | 7.00 to 8.00 | 6.00 to 7.00 | 6.00 to 7.00 | 6.00 to 7.00 | – | – | – | – | – | – | –
4 | CC[C@@H]1C(=O)N(C)c2cnc(Nc3ccc(C(=O)N[C@H]4CC[C@@H](NCCOCCC#Cc5cccc6c5CN([C@H]5CCC(=O)NC5=O)C6=O)CC4)cc3)nc2N1C1CCCC1 [UB-181170] | > 8.00 | 7.00 to 8.00 | 7.00 to 8.00 | 7.00 to 8.00 | – | – | – | – | – | – | –
5 | CC[C@@H]1C(=O)N(C)c2cnc(Nc3ccc(C(=O)N[C@H]4CC[C@@H](N(C)CCOCCC#Cc5cccc6c5CN(C5CCC(=O)NC5=O)C6=O)CC4)cc3OC)nc2N1C1CCCC1 (stereo partly drawn) [UB-181177] | > 8.00 | > 8.00 | > 8.00 | 7.00 to 8.00 | – | – | – | – | – | – | –
6 | CNC(=O)c1ccccc1Nc1nc(Nc2ccc(N3CCN(C(=O)NCCOCCNCCC(=O)Nc4ccc5c(c4)CN(C4CCC(=O)NC4=O)C5=O)CC3)cc2)ncc1Cl (stereo not drawn) [UB-181067] | 7.00 to 8.00 | < 6.00 | < 6.00 | – | – | – | 6.00 to 7.00 | – | – | – | –
7 | CNC(=O)c1ccccc1Nc1nc(Nc2ccc(N3CCN(C(=O)NCCOCC(O)COCCOCCC(=O)Nc4ccc5c(c4)CN(C4CCC(=O)NC4=O)C5=O)CC3)cc2)ncc1Cl (stereo not drawn) [UB-181074] | 7.00 to 8.00 | < 6.00 | < 6.00 | – | – | – | < 6.00 | – | – | – | –
8 | CNC(=O)c1ncccc1Nc1nc(Nc2ccc(N3CCN(C(=O)NC4CCC(NCCOCCC#Cc5ccc6c(c5)CN(C5CCC(=O)NC5=O)C6=O)CC4)CC3)cc2)ncc1Cl (stereo not drawn) [UB-181129] | 7.00 to 8.00 | < 6.00 | < 6.00 | – | – | – | 6.00 to 7.00 | – | – | – | –
9 | CNC(=O)c1ccccc1Nc1nc(Nc2ccc(N3CCN(C(=O)N[C@H]4CC[C@@H](NCCCOCCC(=O)Nc5ccc6c(c5)CN(C5CCC(=O)NC5=O)C6=O)CC4)CC3)cc2)ncc1Cl (stereo partly drawn) [UB-181093] | 7.00 to 8.00 | < 6.00 | < 6.00 | – | – | – | < 6.00 | – | – | – | –

Now from value to compound, other results behind:

Row | pIC50 [1, 6] | pIC50 [2, 7] | pIC50 [3, 8] | pIC50 [4, 9] | pIC50 ([2]; MDA-MB-231 cells, read-out: Inhibitory activity IC50 on MDA-MB-231) | pIC50 ([4]; Daudi cells) | pIC50 [5] | SMILES | pIC50 ([1]; MV4-11, read-out: Inhibitory activity IC50 on MV4;11) | pIC50 ([2]; Homo sapiens, MDA-MB-231, read-out: Inhibitory activity IC50 on MDA-MB-231) | pIC50 ([3]; PC-3, read-out: Inhibitory activity IC50 on PC-3) | pIC50 ([4]; Homo sapiens, Daudi)
10 | > 8.00 | 7.00 to 8.00 | 7.00 to 8.00 | 7.00 to 8.00 | – | – | – | CC[C@@H]1C(=O)N(C)c2cnc(Nc3ccc(C(=O)N[C@H]4CC[C@H](NCCOCCC#Cc5cccc6c5CN(C5CCC(=O)NC5=O)C6=O)CC4)cc3)nc2N1C1CCCC1 (stereo partly drawn) [UB-181144] | – | – | – | –
11 | > 8.00 | 7.00 to 8.00 | 7.00 to 8.00 | 7.00 to 8.00 | – | – | – | CC[C@@H]1C(=O)N(C)c2cnc(Nc3ccc(C(=O)N[C@H]4CC[C@@H](NCCOCCC#Cc5cccc6c5CN(C5CCC(=O)NC5=O)C6=O)CC4)cc3OC)nc2N1C1CCCC1 (stereo partly drawn) [UB-180937] | – | – | – | –
12 | > 8.00 | 7.00 to 8.00 | 7.00 to 8.00 | 6.00 to 7.00 | – | – | – | CC[C@@H]1C(=O)N(C)c2cnc(Nc3ccc(-c4cn([C@H]5CC[C@H](NCCOCCC#Cc6cccc7c6CN(C6CCC(=O)NC6=O)C7=O)CC5)nn4)cc3)nc2N1C1CCCC1 (stereo partly drawn) [UB-181118] | – | – | – | –
13 | > 8.00 | > 8.00 | > 8.00 | > 8.00 | – | – | – | CC[C@@H]1C(=O)N(C)c2cnc(Nc3ccc(-c4cn(C5CCC(NCCOCCC#Cc6cccc7c6CN(C6CCC(=O)NC6=O)C7=O)CC5)nn4)cc3OC)nc2N1C1CCCC1 (stereo partly drawn) [UB-180961] | – | – | – | –
14 | > 8.00 | – | 7.00 to 8.00 | – | 7.00 to 8.00 | 7.00 to 8.00 | – | CC[C@@H]1C(=O)N(C)c2cnc(Nc3ccc(-c4cn([C@H]5CC[C@@H](NCCOCCC#Cc6cccc7c6CN(C6CCC(=O)NC6=O)C7=O)CC5)nn4)cc3)nc2N1C1CCCC1 (stereo partly drawn) [UB-181099] | – | – | – | –
15 | > 8.00 | 7.00 to 8.00 | 7.00 to 8.00 | > 8.00 | – | – | – | CC[C@@H]1C(=O)N(C)c2cnc(Nc3ccc(C(=O)N[C@H]4CC[C@H](N(C)CCOCCC#Cc5cccc6c5CN(C5CCC(=O)NC5=O)C6=O)CC4)cc3OC)nc2N1C1CCCC1 (stereo partly drawn) [UB-181178] | – | – | – | –
